Measurements as given in patent US20240416143A1, “PHOTONIC ANTIMICROBIAL WOUND SURFACE DRESSING” (The General Hospital Corporation, priority 2021, published 2024).
Where two headings read alike, the source gives them in different places.

Tests used:
P. aeruginosa = assay: MIC of menadione by broth microdilution, with or without aBL; format: cell-based, Pseudomonas aeruginosa PA01
Experimental: The MICs of menadione in different bacterial strains were determined by a standard broth microdilution assay according to the Clinical and Laboratory Standards Institute. Briefly, menadione was prepared at 100 mg/mL in Tween 80/DMSO (1:1) as a stock solution. The stock solution was diluted to 2048 μg/mL in BHI and then serial dilutions were performed to 1024-0.015 μg/mL in a 96-well plate. Then, a 10 μL stationary growth-phase culture of 10^8 CFU/mL bacteria in BHI broth was added to the 96-well plate containing the serial dilutions of menadione. The medium containing a similar amount of Tween 80/DMSO (1:1) served as a control. The microplates were incubated at 37° C. for 24 hours and the lowest concentration of the compound capable of completely inhibiting bacterial growth was referred to as the MIC.
However, we investigated the effects of aBL (50 mW/cm^2) in potentiating the antibacterial activities of menadione in the three strains of bacteria. […] The highest fluence that we investigated was 125 J/cm^2, when we irradiated the bacteria for 42 minutes.

MRSA [1] = assay: Photoinactivation of planktonic cultures by menadione + antimicrobial blue light; format: cell-based, methicillin-resistant Staphylococcus aureus; settings: menadione ⅛ MIC + aBL 90 J/cm^2 (50 mW/cm^2), 405 nm
Experimental: (§1) The bacterial cells were grown in BHI broth medium shaken overnight. Cells were collected by centrifugation at 4,000 rpm for 5 minutes and suspended in PBS at a density of 10^8 colony-forming units (CFU)/mL (estimated by measuring the optical density at 600 nm; O.D 0.1=10^8 cells/mL). The microbial suspension in PBS was transferred to a 35×12-mm dish and mixed with different concentrations of menadione: 0, 0.5, 1 and 2 μg/mL for MRSA USA300, AF003 and IQ0064; 0, 1, 10 and 30 μg/mL for P. aeruginosa PA01; and 0, 16, 32, 64 and 128 μg/mL for E. coli ATCC 25922. After incubation in the dark at 25° C. for 1 hour, the planktonic suspension of cells at room temperature was irradiated using aBL (405 nm) at 50 mW/cm^2 with different radiant exposures (0-250 J/cm^2). During the aBL irradiation, 40 μL of samples were withdrawn every 15 minutes, and the CFUs were determined by 10-fold serial dilutions in PBS (10-1 to 10-7 dilution factors), plated on BHI agar plates as described previously [Ref. 17]. CFUs were counted after overnight incubation at 37° C. Experiments were performed in triplicate.

E. coli = assay: as above; format: cell-based, Escherichia coli ATCC 25922; settings: menadione ⅛ MIC + aBL 90 J/cm^2 (50 mW/cm^2), 405 nm
Experimental: as §1

[2] = tested on: P. aeruginosa biofilms in porcine explants; assay: Photoinactivation of biofilms in ex vivo porcine partial thickness wounds by menadione + aBL; format: cell-based, Pseudomonas aeruginosa
Experimental: Skin was handled and sanitized with 70% isopropanol solution after hair shaving. The explants and inner wounds were created using a 12 mm and 4 mm biopsy punches respectively. The explants were placed in 12 wells plates using a (8 μm pore) inserts (Corning™ Falcon™). 1 mL of DMEM media was added to each well in the plate before the insert. After 24 hours, the inner wounds in the explants were inoculated with 20 μL of 10^8 CFU/mL of bacterial solution. After that, the explants were incubated at 37° C. and 5% CO2 for 48 hours to ensure the growth of a mature bacterial biofilm. The inner wounds of the explants were replenished daily with fresh BHI media to ensure that the wounds are hydrated.
48 hours following the inoculation, mature monobacterial biofilms of MRSA, P. aeruginosa, and E. coli were obtained with 8.00 log10 CFU/g per wound bed on each explant. MRSA biofilms in explant were reduced by 0.81 log10 CFU/g after the treatment of just aBL 250 J/cm^2 (50 mW/cm^2). However, MRSA biofilms in ex-vivo porcine skin were reduced by up to 4.18 log10 CFU/g when treated with aBL combined with menadione (200 μg/mL). For MRSA biofilms, the log reduction of mature monobacterial biofilm increased as the menadione concentration increased (see FIGS. 16A-16B). […]

MRSA [3] = assay: Singlet oxygen assay (SOSG) in bacteria; format: cell-based, methicillin-resistant Staphylococcus aureus; settings: 10 μg/mL menadione, 200 J/cm^2
Experimental: 1.2.9.2 Singlet oxygen ^1O2 assay: The singlet oxygen was measured by Singlet Oxygen Sensor Green Reagent (SOSG) (Thermofisher). In the presence of singlet oxygen, SOSG emits a green fluorescence similar to that of fluorescein (excitation/emission maxima ˜504/525 nm). The MRSA were grown in BHI broth medium with shaking overnight. Cells were collected by centrifugation at 4,000 rpm for 5 minutes and resuspended in PBS in the stationary growth phase culture of 1×10^8 CFU/mL. The microbial suspension was transferred to a 35×12-mm dish, mixed with 10 μg/mL of menadione, and stained with 10 μM SOSG solution per the manufacturer's instruction. The bacteria were irradiated with the blue light at 50 mW/cm^2 and the samples were collected each 15 minutes to be analyzed by Microplate Spectrofluorometer (SPECTRAmax®, Molecular Devices, USA) at λex=504 nm and λem=525 nm. The control and the menadione/dark groups were generated under the same conditions without irradiation.

CC1=CC(=O)c2ccccc2C1=O [menadione, 2-methyl-1,4-naphthoquinone]
MIC (P. aeruginosa; Pseudomonas aeruginosa, light or radiation study, 5 min, aBL 15.62 J/cm^2 (5 mins.), 50 mW/cm^2, read-out: MIC): 64 µg/mL | MIC (P. aeruginosa; Pseudomonas aeruginosa, light or radiation study, 0.175 h, aBL 31.25 J/cm^2 (10.5 mins.), 50 mW/cm^2, read-out: MIC): 8 µg/mL | MIC (P. aeruginosa; Pseudomonas aeruginosa, light or radiation study, 0 J/cm^2 (Dark), read-out: MIC): 1020 µg/mL | MIC (P. aeruginosa; aBL 62.5 J/cm^2 (21 mins.), 50 mW/cm^2): complete eradication | MIC (P. aeruginosa; aBL 125 J/cm^2 (42 mins.), 50 mW/cm^2): completely eradicated | eradication by aBL combined with menadione (MRSA [1]): 4.59 log10 CFU/mL | eradication by aBL combined with menadione (E. coli): 6 log10 | biofilm reduction by menadione and blue light ([2]; 50 μg/mL menadione + blue light): 5.27 log10 CFU/mL | biofilm reduction by menadione in the absence of aBL ([2]; no aBL): no effect of biofilm reduction | singlet oxygen (SOSG), menadione+aBL vs aBL alone (MRSA [3]): 1.5 times
